Data reported in patent US20220016098A1, “ORALLY ADMINISTERED PHARMACEUTICAL COMPOSITION COMPRISING FAB I INHIBITORS AND METHOD FOR PREPARING SAME” (priority 2018, published 2022).
≈ marks a conversion by molar mass, not a printed value. Where two headings read alike, the source gives them in different places.

What was measured:
[1] = test system: MRSA strains (methicillin-resistant Staphylococcus aureus); assay: MIC test on MRSA clinical isolates; assay type: cell-based; settings: for MIC: Staphylococcus aureus, MRSA, read-out: MIC60
Experimental: In order to verify the inhibitory effect of the compound of formula 1 on antibiotic-resistant strains, drug susceptibility was evaluated by treating the compound of formula 1 with Staphylococcus aureus phenotype isolated from each patient. […] Appelbaum at Hershey Hospital, who is recognized for its authority in the field of anti-infection worldwide, and about 100 MRSA strains which is currently socially problematic.

[2] = Solubility of the compound of formula 1 in various solvents (HPLC); assay type: physicochemical; settings: thermodynamic from solid
Experimental: Prior to preparing the salt of the compound of formula 1, the compound of formula 1 was analyzed to determine the solubility in various solvents. First, the compound of formula 1 was supersaturated in a pharmaceutically acceptable solvent as shown in Table 5 and stirred in a dark room at room temperature for 12 hours. It was first centrifuged to take a supernatant, and then again filtered with a 0.25 μm PVDF filter to remove insoluble materials remaining in the solution. The filtrate was diluted with methanol and then subjected to HPLC analysis to quantify the solubility. In addition, HPLC analysis conditions are as follows.
20 μL of each of the test solution and the standard solution were tested according to a liquid chromatography method (HPLC) of general test methods of the Korean Pharmacopoeia under the following conditions, and the peak area of the main component of each solution was measured.
Detector: UV spectrophotometer (measurement wavelength 286 nm)
Column: Aegispak C18-L (4.6 mm×250 mm, 5 μm) column
Column temperature: 25° C.
Mobile phase: Acetonitrile:water=3:2

[3] = Solubility in distilled water (Experimental Example 6); assay type: physicochemical
Experimental: First, an excess of each substance was added to distilled water and mixed at room temperature for 12 hours. After standing for 2 hours to take the supernatant, it was filtered using a filter having 0.25 μm pores. After diluting this in methanol again, HPLC analysis was performed.

[4] = test system: Staphylococcus aureus 13B-382 (MRSA, clinical strain); assay: Susceptibility test (MIC), clinical strain; assay type: cell-based
[5] = test system: Staphylococcus aureus ATCC 29213 (MSSA, standard strain); assay: Susceptibility test (MIC), standard strain; assay type: cell-based

C[C@H]1COc2c(N3CCN(C)CC3)c(F)cc3c(=O)c(C(=O)O)cn1c23 [Levofloxacin]
MIC ([1]; Methicillin-resistant, n = 100): 1 µg/mL (≈ 2.77 µM)

Cc1c(N)cccc1Cn1ccc(OCCc2cccs2)cc1=O [compound of formula 1, 1-(3-amino-2-methylbenzyl)-4-(2-thiophen-2-yl-ethoxy)-1H-pyridin-2-one]
solubility at 12 h ([2]; PEG 300, organic solvent or mixture, PEG 300, room temperature, read-out: Solubility): 22000 µg/mL
solubility at 12 h ([2]; dichloromethane, organic solvent or mixture, Dichloromethane, room temperature, read-out: Solubility): > 50000 µg/mL
solubility at 12 h ([2]; methanol, organic solvent or mixture, Methanol, room temperature, read-out: Solubility): < 10000 µg/mL
solubility at 12 h ([2]; pH 1.2 aqueous solution, pH 1.2, simulated gastric fluid, pH 1.2 aqueous solution, room temperature, read-out: Solubility): ~900 µg/mL
solubility at 12 h ([2]; water, Water, room temperature, read-out: Solubility): 2 µg/mL
solubility at 12 h ([2]; water, distilled water / water (neutral), read-out: Solubility in water): 2.5 µg/mL
pH ([3]; of the solubility test in distilled water): 6.8
solubility at 12 h ([3]; pH 6.8, thermodynamic from solid, distilled water, room temperature, 12 hours): 2.5 µg/mL

Teicoplanin
MIC60 ([1]; Methicillin-resistant, n = 100): 1.0 µg/mL

CC[C@H]1OC(=O)[C@H](C)[C@@H](O[C@H]2C[C@@](C)(OC)[C@@H](O)[C@H](C)O2)[C@H](C)[C@@H](O[C@@H]2O[C@H](C)C[C@H](N(C)C)[C@H]2O)[C@](C)(O)C[C@@H](C)CN(C)[C@H](C)[C@@H](O)[C@]1(C)O [Azithromycin]
MIC ([1]; Methicillin-resistant, n = 100): > 64 µg/mL

CN[C@H](CC(C)C)C(=O)N[C@H]1C(=O)N[C@@H](CC(N)=O)C(=O)N[C@H]2C(=O)N[C@H]3C(=O)N[C@H](C(=O)N[C@H](C(=O)O)c4cc(O)cc(O)c4-c4cc3ccc4O)[C@H](O)c3ccc(c(Cl)c3)Oc3cc2cc(c3O[C@@H]2O[C@H](CO)[C@@H](O)[C@H](O)[C@H]2O[C@H]2C[C@](C)(N)[C@H](O)[C@H](C)O2)Oc2ccc(cc2Cl)[C@H]1O [Vancomycin]
MIC [1]: 1 µg/mL (≈ 0.69 µM)
MIC [4]: 1 µg/mL (≈ 0.69 µM)
MIC [5]: 0.5 µg/mL (≈ 0.345 µM)

CCCCCCCCCC(=O)N[C@@H](Cc1c[nH]c2ccccc12)C(=O)N[C@H](CC(N)=O)C(=O)N[C@@H](CC(=O)O)C(=O)N[C@@H]1C(=O)NCC(=O)N[C@@H](CCCN)C(=O)N[C@@H](CC(=O)O)C(=O)N[C@H](C)C(=O)N[C@@H](CC(=O)O)C(=O)NCC(=O)N[C@H](CO)C(=O)N[C@@H]([C@H](C)CC(=O)O)C(=O)N[C@@H](CC(=O)c2ccccc2N)C(=O)O[C@@H]1C [Daptomycin]
MIC ([1]; Methicillin-resistant, n = 100): 0.5 µg/mL (≈ 0.309 µM)

CC(=O)NC[C@H]1CN(c2ccc(N3CCOCC3)c(F)c2)C(=O)O1 [Linezolid]
MIC ([1]; Methicillin-resistant, n = 100): 1 µg/mL (≈ 2.96 µM)
